Results: US11492348B2, “Tri-substituted aryl and heteroaryl derivatives as modulators of PI3-kinase and autophagy pathways” (Neuropore Therapies, Inc., priority 2018, dated 2022)

Target: PI3Kα (Homo sapiens (Human), UniProt P42336)
Test: Inhibition of PI3Kα (ADP-Glo kinase activity assay, ATP to ADP conversion)
Format: biochemical
Details: 25 μM PIP2:PS, 60 μM ATP, 30 min reaction, luminescence
Experimental: Quantification of ATP to ADP conversion as a measure of PI3Kα activity. Active PI3Kα (Life Technologies), in the presence or absence of PI3Kα inhibitor, was reacted with PIP2:PS (Life Technologies), a substrate specifically optimized for use with Class I PI3 kinases, and ultrapure ATP (Promega). The conversion of ATP to ADP by PI3Kα was measured as luminescence signal via Promega ADP-Glo kinase activity assay. Assay was validated using published PI3Kα inhibitors LY294002, PI-103, BYL719, GDC0198 and also DMSO vehicle control.
Compounds were prepared at 100× final concentration as a 12-point, 1:3 serial-dilution in DMSO series, with DMSO control as 12th point. Compound was then diluted in (25 mM HEPES pH 7.5, 1 mM EGTA, 0.3% CHAPS) prior to addition to PI3Kα. Active PI3Kα diluted to 0.24 ng/μL (1.1 nM) in (50 mM HEPES pH 7.5, 6 mM MgCl2, 1 mM EGTA, 200 mM NaCl, 0.03% CHAPS, 8 mM DTT) was incubated with compound for 0 hr and 3 hr prior to the start of the reaction. 25 μM PIP2:PS and 60 μM ATP were diluted from stock in (25 mM HEPES pH 7.5, 1 mM EGTA, 0.3% CHAPS) and added to initiate the PI3Kα reaction. Reaction time was 30 minutes. ATP to ADP conversion was measured in Luminescence Counts on DTX880 Plate Reader (Beckman Coulter). Compound IC50s were reported using GraphPad Prism software. Analytical method was non-linear regression, 4-parameter curve fit with bottom fit to validated PI3Kα inhibitor reference controls and no top fit (floating top).

Sequence of PI3Kα (P42336 whole entry): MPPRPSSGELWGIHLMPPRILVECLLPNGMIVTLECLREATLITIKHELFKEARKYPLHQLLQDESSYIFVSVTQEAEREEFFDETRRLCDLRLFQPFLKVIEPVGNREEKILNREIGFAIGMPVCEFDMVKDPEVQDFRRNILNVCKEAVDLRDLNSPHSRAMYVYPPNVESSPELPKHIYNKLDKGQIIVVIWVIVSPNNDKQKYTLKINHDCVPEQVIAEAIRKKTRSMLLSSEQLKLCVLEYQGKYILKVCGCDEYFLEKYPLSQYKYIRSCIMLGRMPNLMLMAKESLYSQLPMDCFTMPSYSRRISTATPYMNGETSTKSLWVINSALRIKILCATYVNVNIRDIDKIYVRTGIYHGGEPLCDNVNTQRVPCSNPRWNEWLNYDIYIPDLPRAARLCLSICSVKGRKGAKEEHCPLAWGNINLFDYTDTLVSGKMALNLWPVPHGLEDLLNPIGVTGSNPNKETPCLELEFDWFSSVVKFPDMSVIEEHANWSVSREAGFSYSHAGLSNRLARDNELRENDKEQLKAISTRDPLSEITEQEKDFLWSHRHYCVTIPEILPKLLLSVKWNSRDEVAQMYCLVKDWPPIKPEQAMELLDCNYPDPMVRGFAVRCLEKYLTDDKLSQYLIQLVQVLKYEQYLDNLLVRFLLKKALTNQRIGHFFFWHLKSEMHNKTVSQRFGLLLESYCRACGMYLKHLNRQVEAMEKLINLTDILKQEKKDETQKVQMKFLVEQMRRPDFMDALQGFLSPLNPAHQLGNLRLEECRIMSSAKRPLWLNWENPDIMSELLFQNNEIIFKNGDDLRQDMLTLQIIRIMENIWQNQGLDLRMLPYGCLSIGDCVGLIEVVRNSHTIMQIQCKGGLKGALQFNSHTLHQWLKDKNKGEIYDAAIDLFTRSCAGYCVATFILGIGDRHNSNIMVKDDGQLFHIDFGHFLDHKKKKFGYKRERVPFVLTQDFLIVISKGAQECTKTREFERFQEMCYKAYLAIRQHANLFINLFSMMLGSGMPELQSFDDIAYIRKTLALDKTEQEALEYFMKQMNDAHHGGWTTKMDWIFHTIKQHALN
Sequence of PI3Kα (P27986 whole entry partner): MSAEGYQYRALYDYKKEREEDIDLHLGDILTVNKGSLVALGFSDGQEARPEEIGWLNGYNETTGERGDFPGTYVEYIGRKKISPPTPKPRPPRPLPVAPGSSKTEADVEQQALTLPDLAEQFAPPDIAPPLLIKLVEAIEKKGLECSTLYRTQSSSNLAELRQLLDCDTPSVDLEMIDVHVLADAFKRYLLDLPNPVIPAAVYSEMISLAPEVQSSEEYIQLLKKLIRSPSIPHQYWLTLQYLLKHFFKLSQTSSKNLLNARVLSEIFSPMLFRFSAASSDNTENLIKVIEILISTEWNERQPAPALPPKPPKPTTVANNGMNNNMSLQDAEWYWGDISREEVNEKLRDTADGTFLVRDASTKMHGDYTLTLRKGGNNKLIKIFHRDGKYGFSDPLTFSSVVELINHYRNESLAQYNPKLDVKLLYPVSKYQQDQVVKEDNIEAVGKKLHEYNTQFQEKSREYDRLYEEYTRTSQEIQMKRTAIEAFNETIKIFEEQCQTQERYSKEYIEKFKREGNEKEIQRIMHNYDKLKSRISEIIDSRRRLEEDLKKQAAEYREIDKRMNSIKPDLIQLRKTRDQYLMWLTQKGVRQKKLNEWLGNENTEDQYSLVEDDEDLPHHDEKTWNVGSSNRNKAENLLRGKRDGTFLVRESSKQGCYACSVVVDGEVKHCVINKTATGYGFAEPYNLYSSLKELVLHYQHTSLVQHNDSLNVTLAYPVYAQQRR

| PI3Ka IC50 [µM] | SMILES |
| --- | --- |
| 0.87 | CC(C)N1CC(S(=O)(=O)c2cc(-c3cnc(N)nc3)cc(N3CCOCC3)c2)C1 [Compound 65, 5-(3-((1-isopropylazetidin-3-yl)sulfonyl)-5-morpholinophenyl)pyrimidin-2-amine] |
| 1.3 | Nc1ncc(-c2cc(N3CCOCC3)cc(S(=O)(=O)C3CN(C4CCOCC4)C3)c2)cn1 [Compound 66, 5-(3-morpholino-5-((1-(tetrahydro-2H-pyran-4-yl)azetidin-3-yl)sulfonyl)phenyl)pyrimidin-2-amine] |
| 0.66 | Nc1ncc(-c2cc(N3CCOCC3)cc(S(=O)(=O)C3CN(Cc4ccc(F)cc4)C3)c2)cn1 [Compound 80, 5-(3-((1-(4-fluorobenzyl)azetidin-3-yl)sulfonyl)-5-morpholinophenyl)pyrimidin-2-amine] |
| 1.0 | C[C@@H]1CC(S(=O)(=O)c2cc(-c3cnc(N)nc3)cc(N3CCOCC3)c2)C[C@H](C)O1 (stereo partly drawn) [Compound 85, 5-(3-(((2R,6S)-2,6-dimethyltetrahydro-2H-pyran-4-yl)sulfonyl)-5-morpholinophenyl)pyrimidin-2-amine] |
| 0.58 | CC(C)(C)C(=O)N1CC(S(=O)(=O)c2cc(-c3cnc(N)nc3)cc(N3CCOCC3)c2)C1 [Compound 86, 1-(3-((3-(2-aminopyrimidin-5-yl)-5-morpholinophenyl)sulfonyl)azetidin-1-yl)-2,2-dimethylpropan-1-one] |
| 2.5 | CC(C)N1CCC(S(=O)(=O)c2cc(-c3cnc(N)nc3)cc(N3CCOCC3)c2)C1.Cl (stereo not drawn) [Compound 89, 5-(3-((1-isopropylpyrrolidin-3-yl)sulfonyl)-5-morpholinophenyl)pyrimidin-2-amine hydrochloride] |
| 7.22 | CC(C)N1CCC(S(=O)(=O)c2cc(-c3cnc(N)nc3)cc(N3CCOCC3)c2)CC1 [Compound 90, 5-(3-((1-isopropylpiperidin-4-yl)sulfonyl)-5-morpholinophenyl)pyrimidin-2-amine] |

Further lines, the compound ahead of its results:

| SMILES | PI3Ka IC50 [µM] |
| --- | --- |
| CC(C)(C)OC(=O)N1CCC(N2CC(S(=O)(=O)c3cc(-c4cnc(N)nc4)cc(N4CCOCC4)c3)C2)CC1 [Compound 67, tert-butyl 4-(3-((3-(2-aminopyrimidin-5-yl)-5-morpholinophenyl)sulfonyl)azetidin-1-yl)piperidine-1-carboxylate] | 0.80 |
| CC(C)(C)OC(=O)N1CC(S(=O)(=O)c2cc(-c3cnc(N)cn3)cc(N3CCOCC3)c2)C1 [Compound 69, tert-butyl 3-((3-(5-aminopyrazin-2-yl)-5-morpholinophenyl)sulfonyl)azetidine-1-carboxylate] | 0.54 |
| Nc1cnc(-c2cc(N3CCOCC3)cc(S(=O)(=O)Cc3ccccc3)c2)cn1 [Compound 73, 5-(3-(benzylsulfonyl)-5-morpholinophenyl)pyrazin-2-amine] | 1.5 |
| Nc1cnc(-c2cc(N3CCOCC3)cc(S(=O)(=O)C3CCOC3)c2)cn1 (stereo not drawn) [Compound 74, 5-(3-morpholino-5-((tetrahydrofuran-3-yl)sulfonyl)phenyl)pyrazin-2-amine] | 1.0 |
| CC(C)(O)CNc1ccc(CS(=O)(=O)c2cc(-c3cnc(N)nc3)cc(N3CCOCC3)c2)cc1 [Compound 84, 1-((4-(((3-(2-aminopyrimidin-5-yl)-5-morpholinophenyl)sulfonyl)methyl)phenyl)amino)-2-methylpropan-2-ol] | 0.60 |
| Nc1ccc(-c2cc(N3CCOCC3)cc(S(=O)(=O)Cc3ccc(F)cc3F)c2)nc1 [Compound 98, -(3-((2,4-difluorobenzyl)sulfonyl)-5-morpholinophenyl)pyridin-3-amine] | 12 |
| Cc1cc(N)nnc1-c1cc(N2CCOCC2)cc(S(=O)(=O)Cc2ccc(F)cc2F)c1 [Compound 99, 6-(3-((2,4-difluorobenzyl)sulfonyl)-5-morpholinophenyl)-5-methylpyridazin-3-amine] | 4.3 |
| O=S(=O)(Cc1ccccc1)c1cc(-c2cnc(NC3CC3)nc2)cc(N2CCOCC2)c1 [Compound 104, 5-(3-(benzylsulfonyl)-5-morpholinophenyl)-N-cyclopropylpyrimidin-2-amine] | 1.3 |
